# Measured values from patent US20230013823A1, “INHIBITORS OF HUMAN IMMUNODEFICIENCY VIRUS REPLICATION” (VIV HEALTHCARE UK (No. 5) LIMITED, priority 2019, published 2023).
# How the values were obtained:
# [1] = test system: recombinant NL4-3 virus (Renilla luciferase in nef); assay: HIV cell culture assay (antiviral activity, luciferase readout in MT-2 cells); type: cell-based; details: Renilla, NL43
# Procedure: HIV cell culture assay—MT=2 cells, 293T cells and the proviral DNA clone of NL4-3 virus were obtained from the NIH AIDS Research and Reference Reagent Program. MT=2 cells were propagated in RPMI 1640 media supplemented with 10% heat inactivated fetal bovine serum (FBS), […] penicillin G and up to 100 units/mL streptomycin. The 293T cells were propagated in DMEM media supplemented with 10% heat inactivated FBS, […] penicillin G and […] streptomycin. A recombinant NL4-3 proviral clone, in which a section of the nef gene was replaced with the Renilla luciferase gene, was used to make the reference virus used in these studies. The recombinant virus was prepared through transfection of the recombinant NL4-3 proviral clone into 293T cells using Transit-293 Transfection Reagent from Mirus Bio LLC (Madison, Wis.). Supernatent was harvested after 2-3 days and the amount of virus present was titered in MT=2 cells using luciferase enzyme activity as a marker by measuring luciferase enzyme activity. Luciferase was quantitated using the EnduRen Live Cell Substrate from Promega (Madison, Wis.). Antiviral activities of compounds toward the recombinant virus were quantified by measuring luciferase activity in MT=2 cells infected for 4-5 days with the recombinant virus in the presence of serial dilutions of the compound.
# The 50% effective concentration (EC50) was calculated by using the exponential form of the median effect equation where (Fa)=1/[1+(ED50/drug conc.)m] (Johnson V A, Byington R T. Infectivity Assay. In Techniques in HIV Research. ed. Aldovini A, Walker B D. 71-76. New York: Stockton Press. 1990). The 50% inhibitory concentration (EC50) was calculated by using the exponential form of the median effect equation where percent inhibition=1/[1+(EC50/drug concentration)m], where m is a parameter that reflects the slope of the concentration-response curve.
# [2] = Compound cytotoxicity, XTT-based colorimetric assay; type: cell-based; details: human; uninfected MT2 cells, day 4, XTT
# Procedure: Compound cytotoxicity and the corresponding CC50 values were determined using the same protocol as described in the antiviral assay except that uninfected cells were used. Cytotoxicity was assessed on day 4 in uninfected MT2 cells by using an XTT (2,3-bis[2-Methoxy-4-nitro-5-sulfophenyl]-2H-tetrazolium-5-carboxyanilide inner salt)-based colorimetric assay (Sigma-Aldrich, St Louis, Mo.).
SMILES,EC50 [1] [nM],CC50 at 4 days [2] [nM]
"Cn1nc(NS(C)(=O)=O)c2c(Cl)ccc(-n3c([C@H](Cc4cc(F)cc(F)c4)NC(=O)Cn4nc(C(F)F)c5c4C(F)(F)[C@@H]4C[C@H]54)nc4cc(-c5cccc(C(C)(F)F)n5)ccc4c3=O)c21 (atropisomer, axis not shown; (P)) [Example 28, N—((S)-1-((3P)-3-(4-chloro-1-methyl-3-(methylsulfonamido)-1H-indazol-7-yl)-7-(6-(1,1-difluoroethyl)pyridin-2-yl)-4-oxo-3,4-dihydroquinazolin-2-yl)-2-(3,5-difluorophenyl)ethyl)-2-((3bS,4aR)-3-(difluoromethyl)-5,5-difluoro-3b,4,4a,5-tetrahydro-1H-cyclopropa[3,4]cyclopenta[1,2-c]pyrazol-1-yl)acetamide]",0.12,> 100
"Cn1nc(NS(C)(=O)=O)c2c(Cl)ccc(-n3c([C@H](Cc4cc(F)cc(F)c4)NC(=O)Cn4ccc(C5CC5)n4)nc4cc(-c5ccn(CC(F)(F)C(F)F)n5)ccc4c3=O)c21 (atropisomer, axis not shown; (P)) [Example 63, (S)—N-(1-((3P)-3-(4-chloro-1-methyl-3-(methylsulfonamido)-1H-indazol-7-yl)-4-oxo-7-(1-(2,2,3,3-tetrafluoropropyl)-1H-pyrazol-3-yl)-3,4-dihydroquinazolin-2-yl)-2-(3,5-difluorophenyl)ethyl)-2-(3-cyclopropyl-1H-pyrazol-1-yl)acetamide]",0.043,> 100
"Cn1nc(NS(C)(=O)=O)c2c(Cl)ccc(-n3c([C@H](Cc4cc(F)cc(F)c4)NC(=O)Cn4nc(C(F)F)c5c4C(F)(F)[C@@H]4C[C@H]54)nc4cc(-c5ncc(F)cn5)ccc4c3=O)c21 (atropisomer, axis not shown; (P)) [Example 24, N—((S)-1-((3P)-3-(4-chloro-1-methyl-3-(methylsulfonamido)-1H-indazol-7-yl)-7-(5-fluoropyrimidin-2-yl)-4-oxo-3,4-dihydroquinazolin-2-yl)-2-(3,5-difluorophenyl)ethyl)-2-((3bS,4aR)-3-(difluoromethyl)-5,5-difluoro-3b,4,4a,5-tetrahydro-1H-cyclopropa[3,4]cyclopenta[1,2-c]pyrazol-1-yl)acetamide]",0.045,> 100
"Cn1nc(NS(C)(=O)=O)c2c(Cl)ccc(-n3c([C@H](Cc4cc(F)cc(F)c4)NC(=O)Cn4nc(C(F)F)c5c4C(F)(F)[C@@H]4C[C@H]54)nc4cc(-c5ccn(CC(C)(C)C)n5)ccc4c3=O)c21 (atropisomer, axis not shown; (P)) [Example 29, N—((S)-1-((3P)-3-(4-chloro-1-methyl-3-(methylsulfonamido)-1H-indazol-7-yl)-7-(1-neopentyl-1H-pyrazol-3-yl)-4-oxo-3,4-dihydroquinazolin-2-yl)-2-(3,5-difluorophenyl)ethyl)-2-((3bS,4aR)-3-(difluoromethyl)-5,5-difluoro-3b,4,4a,5-tetrahydro-1H-cyclopropa[3,4]cyclopenta[1,2-c]pyrazol-1-yl)acetamide]",0.21,> 500
"CC(F)(F)Cn1ccc(-c2ccc3c(=O)n(-c4ccc(Cl)c5c(NS(=O)(=O)C6CC6)nn(CC(F)F)c45)c([C@H](Cc4cc(F)cc(F)c4)NC(=O)Cn4nc(C(F)F)c5c4C(F)(F)[C@@H]4C[C@H]54)nc3c2)n1 (atropisomer, axis not shown; (P)) [Example 69, N—((S)-1-((3P)-3-(4-chloro-3-(cyclopropanesulfonamido)-1-(2,2-difluoroethyl)-1H-indazol-7-yl)-7-(1-(2,2-difluoropropyl)-1H-pyrazol-3-yl)-4-oxo-3,4-dihydroquinazolin-2-yl)-2-(3,5-difluorophenyl)ethyl)-2-((3bS,4aR)-3-(difluoromethyl)-5,5-difluoro-3b,4,4a,5-tetrahydro-1H-cyclopropa[3,4]cyclopenta[1,2-c]pyrazol-1-yl)acetamide]",0.16,> 100
"Cc1cc(-c2ccc3c(=O)n(-c4ccc(Cl)c5c(NS(C)(=O)=O)nn(C)c45)c([C@H](Cc4cc(F)cc(F)c4)NC(=O)Cn4nc(C(F)F)c5c4C(F)(F)[C@@H]4C[C@H]54)nc3c2)nn1CC(F)(F)C(F)F (atropisomer, axis not shown; (P)) [Example 57, N—((S)-1-((3P)-3-(4-chloro-1-methyl-3-(methylsulfonamido)-1H-indazol-7-yl)-7-(5-methyl-1-(2,2,3,3-tetrafluoropropyl)-1H-pyrazol-3-yl)-4-oxo-3,4-dihydroquinazolin-2-yl)-2-(3,5-difluorophenyl)ethyl)-2-((3bS,4aR)-3-(difluoromethyl)-5,5-difluoro-3b,4,4a,5-tetrahydro-1H-cyclopropa[3,4]cyclopenta[1,2-c]pyrazol-1-yl)acetamide]",0.13,> 100
"Cn1nc(NS(C)(=O)=O)c2c(Cl)ccc(-n3c([C@H](Cc4cc(F)cc(F)c4)NC(=O)Cn4nc(C(F)F)c5c4C(F)(F)[C@@H]4C[C@H]54)nc4cc(-c5cccc(C(F)F)c5F)ccc4c3=O)c21 (atropisomer, axis not shown; (P)) [Example 18, N—((S)-1-((3P)-3-(4-chloro-1-methyl-3-(methylsulfonamido)-1H-indazol-7-yl)-7-(3-(difluoromethyl)-2-fluorophenyl)-4-oxo-3,4-dihydroquinazolin-2-yl)-2-(3,5-difluorophenyl)ethyl)-2-((3bS,4aR)-3-(difluoromethyl)-5,5-difluoro-3b,4,4a,5-tetrahydro-1H-cyclopropa[3,4]cyclopenta[1,2-c]pyrazol-1-yl)acetamide]",0.54,> 500
"CCC(F)(F)Cn1ccc(-c2ccc3c(=O)n(-c4ccc(Cl)c5c(NS(C)(=O)=O)nn(C)c45)c([C@H](Cc4cc(F)cc(F)c4)NC(=O)Cn4nc(C(F)F)c5c4C(F)(F)[C@@H]4C[C@H]54)nc3c2)n1 (atropisomer, axis not shown; (P)) [Example 49, N—((S)-1-((3P)-3-(4-chloro-1-methyl-3-(methylsulfonamido)-1H-indazol-7-yl)-7-(1-(2,2-difluorobutyl)-1H-pyrazol-3-yl)-4-oxo-3,4-dihydroquinazolin-2-yl)-2-(3,5-difluorophenyl)ethyl)-2-((3bS,4aR)-3-(difluoromethyl)-5,5-difluoro-3b,4,4a,5-tetrahydro-1H-cyclopropa[3,4]cyclopenta[1,2-c]pyrazol-1-yl)acetamide]",0.081,> 100
"Cn1nc(NS(C)(=O)=O)c2c(Cl)ccc(-n3c([C@H](Cc4cc(F)cc(F)c4)NC(=O)Cn4nc(C(F)F)c5c4C(F)(F)[C@H]4C[C@H]54)nc4cc(-c5cnn(C(F)F)c5)ccc4c3=O)c21 (atropisomer, axis not shown; (P)) [Example 35, N—((S)-1-((3P)-3-(4-chloro-1-methyl-3-(methylsulfonamido)-1H-indazol-7-yl)-7-(1-(difluoromethyl)-1H-pyrazol-4-yl)-4-oxo-3,4-dihydroquinazolin-2-yl)-2-(3,5-difluorophenyl)ethyl)-2-((3bS,4aR)-3-(difluoromethyl)-5,5-difluoro-3b,4,4a,5-tetrahydro-1H-cyclopropa[3,4]cyclopenta[1,2-c]pyrazol-1-yl)acetamide]",0.092,> 100
"Cn1nc(NS(C)(=O)=O)c2c(Cl)ccc(-n3c([C@H](Cc4cc(F)cc(F)c4)NC(=O)Cn4nc(C(F)F)c5c4C(F)(F)[C@@H]4C[C@H]54)nc4cc(-c5ncc(F)cc5Cl)ccc4c3=O)c21 (atropisomer, axis not shown; (P)) [Example 10, N—((S)-1-((3P)-3-(4-chloro-1-methyl-3-(methylsulfonamido)-1H-indazol-7-yl)-7-(3-chloro-5-fluoropyridin-2-yl)-4-oxo-3,4-dihydroquinazolin-2-yl)-2-(3,5-difluorophenyl)ethyl)-2-((3bS,4aR)-3-(difluoromethyl)-5,5-difluoro-3b,4,4a,5-tetrahydro-1H-cyclopropa[3,4]cyclopenta[1,2-c]pyrazol-1-yl)acetamide]",0.11,–
"Cn1nc(NS(C)(=O)=O)c2c(Cl)ccc(-n3c([C@H](Cc4cc(F)cc(F)c4)NC(=O)Cn4nc(C(F)F)c5c4C(F)(F)[C@@H]4C[C@H]54)nc4cc(-c5ccc(F)nc5F)ccc4c3=O)c21 (atropisomer, axis not shown; (P)) [Example 6, N—((S)-1-((3P)-3-(4-chloro-1-methyl-3-(methylsulfonamido)-1H-indazol-7-yl)-7-(2,6-difluoropyridin-3-yl)-4-oxo-3,4-dihydroquinazolin-2-yl)-2-(3,5-difluorophenyl)ethyl)-2-((3bS,4aR)-3-(difluoromethyl)-5,5-difluoro-3b,4,4a,5-tetrahydro-1H-cyclopropa[3,4]cyclopenta[1,2-c]pyrazol-1-yl)acetamide]",0.047,–
